Reference: article PMC10587169, “Tuning aminopolycarboxylate chelators for efficient complexation of trivalent actinides” (Scientific Reports, 2023)
Where two headings read alike, the source gives them in different places. Marks after values point to notes of the source that are not given here.

How the values were obtained:
[1] = Spectrophotometric titration; format: binding; conditions: spectrophotometrically determined in 2.0 M (Na+/H+)ClO4, 20 °C
Source text: Changes in the optical absorption characteristics of Nd^3+ were monitored using a Cary 6000i UV/Vis–NIR Spectrometer (Agilent) using 1 cm semimicro quartz cuvettes (Starna) in double-beam mode, where the ^4I9/2 → ^4G5/2, ^2G7/2 transitions[34] were monitored between 560 and 605 nm with a 0.075 nm interval and 1.0 nm spectral bandwidth. Changes in the optical absorption characteristics of ^243Am^3+ and ^248Cm^3+ were monitored using a Flame-S-VIS–NIR-ES spectrometer coupled to a DH-2000-BAL dual-mode light source (Ocean Optics) with a single 1 cm semimicro quartz cuvette (Starna). The light source and spectrometer were optically coupled to the CUV sample (Ocean Optics) holder using 2 m fiberoptics (200 μm) and the parameters for acquisition were 0.369 nm interval and 1000 scans averaged with an integration time/scan 1.08 ms (total acquisition time ~ 1 s). The complexation of Am^3+ with the ligands was monitored in the 495–525 nm spectral region, looking at the ^7F0′ → ^5L6′ transition[23],[35]. For Cm^3+, ligand complexation was monitored in the 365–410 nm spectral region, looking at the ^8S7/2 → ^2Ji (i = {15}, {13,9}, {11,17}) manifold transitions[24],[25],[36]. Changes in aqueous p[H^+] were monitored throughout each titration step using a Gran-calibrated Orion Ross Semi-micro glass electrode. Baseline correction was applied to all datasets and was typically a simple linear subtraction. However, in the case of the ^248Cm/H4pypa-peg spectra, the tail end of the ligand absorption overlapped the hypersensitive Cm peaks. In this case the background correction was applied using a 5th-order empirical polynomial. Finally, the spectroscopic data was analyzed using the HypSpec software package[33],[37]. Full details of the titrand and titrant solutions for each titration are included in the Supplemental Information.
The coordination of Nd^3+ by H4octapa and H4pypa-peg was also studied using spectroscopic methods. Figures 5A, B show the collected spectrophotometric signatures for H4octapa and H4pypa-peg, respectively.4 M^3++L^4-⇆ML^-β101=ML^-/[M^3+]L^4- 5 M^3++H^++L^4-⇆MHLaqβ111=MHLaq/[M^3+L^4-H^+]
Optical absorption features of ^4I9/2 → ^4G5/2, ^2G7/2 transitions for Nd^3+ are perturbed due to the introduction of increasing quantities of complexants, resulting in characteristic red-shifted changes. In Fig. 5A a broad absorption band with λmax = 577 nm is distinctly different to the optical absorption of free Nd^3+ metal in Fig. 5B. The differences can be attributed to the nitrate complexation of Nd^3+ as the spectrophotometric titration with H4octapa was performed in 2.0 M (Na^+/H^+)NO3. […] The HypSpec interpretation of the Nd/pypa-peg titration points to the presence of three absorbing species: Nd^3+, NdHL(aq), and NdL^−. The conditional stability constants obtained spectroscopically are listed in Table 3, showing good agreement with the stability constants determined using potentiometry. The complex stability constants for structurally similar APC ligands found in the literature are also presented (H4pypa[18] and H4py4pa[57]).
2. Spectrophotometric titration parameters
Nd3+: The titrand solution consisting of 1.980 mL of 7.57 mM Nd(ClO4)3 at p[H+] = 1.61 was blended with 1.965 mL of titrant solution containing 7.62 mM Nd3+, 18.57 mM H4octapa, […]
Am3+: The titrand solution consisting of 0.842 mL of 0.810 mM Am(ClO4)3 at p[H+] =1.66 was blended with 0.811 mL of titrant solution containing 0.815 mM Am3+, 8.95 mM H4octapa, at p[H+] ≈ 5.0 – 6.0.
Nd3+: The titrand solution consisting of 0.801 mL of 9.82 mM Nd(ClO4)3 at p[H+] = 1.61 was blended with 1.176 mL of titrant solution containing 9.91 mM Nd3+ and 24.58 mM H4pypa-peg in with p[H+] ≈ 3.0 – 4.0.
Am3+: The titrand solution consisting of 0.806 mL of 0.791 mM Am(ClO4)3 at p[H+] = 1.41 was blended with 0.787 mL of titrant solution containing 0.801 mM Am3+ and 15.09 mM H4pypa-peg at p[H+] ≈ 5 – 6.
Cm3+: The titrand solution consist ing of 0.809 mL of 1.00 mM Cm(ClO4)3 at p[H+] = 1.34 was […]

[2] = Potentiometric titration, acid dissociation constants; format: physicochemical; conditions: aqueous 2.0 M (Na+/H+)ClO4 electrolyte solution
Protocol: All potentiometric titrations were run using a Mettler Toledo T90 autotitrator equipped with an Orion Ross Semi-micro glass electrode with the junction stabilization solution changed to 5.0 M NaCl to prevent precipitation with perchlorate media. All titrations were performed under a hydrated nitrogen atmosphere. The forward titration measurements (acidic titrand, basic titrant) of H4octapa in nitrate electrolyte medium were performed as described previously due to the limited solubility of this ligand in a 2 M (Na^+/H^+)ClO4 medium. Acid dissociation constants of H4octapa in perchlorate electrolyte medium were also determined by titrating in reverse (basic titrand, acidic titrant) to alleviate the solubility concerns. Titrations of H4pypa-peg were performed in reduced-volume glass titration cups (10 mL nominal) due to the limited supply of this ligand. All potentiometric titrations were run in triplicate. The choice of using p[H^+] was explained in Heathman et al.[15], and the calibration of the p[H^+] scale utilized Gran analysis through titration of a strong acid with the base used in the potentiometric titrations[29]–[31]. Potentiometric titration data was modeled and analyzed using Hyperquad2013 to determine acid dissociation and metal complexation stability constants[32],[33].
Changes in hydrogen ion concentration were monitored using a glass electrode for a solution of H4octapa as either NaOH or HClO4 were titrated into the solutions. […] The experimental potentiometric curve collected for a forward titration of H4octapa in (Na^+/H^+)NO3 is presented in Fig. 3A, alongside the distribution curves for the identified HnL species. Following those studies, the acid/base conditions were reversed and octapa^4− was titrated in 2.0 M (Na^+/H^+)ClO4 using HClO4 (SI Figure S7). The potentiometric curves are well respresented by five proton dissociation equilibria. The calculated equilibrium constants correspond with the protonation reactions for two aliphatic amines, two pyridine nitrogens, and one carboxylate group with the protonation sequence described by Eq. (2). The acid dissociation constants (pKa = − log10Ka) for H4octapa are reported in Table 1 alongside previously reported values in the literature.
The experimental potentiometric titration curve and the distribution curves for the associated HnL species for H4pypa-peg are presented in Fig. 3B. […] For comparison, the protonation equilibria of H4edta were also studied in 2.0 M (Na^+/H^+)ClO4. The pKa values for H4edta are listed in Table 2 and collected potentiometric titration curves (forward and reverse) are presented in SI Figure S8. For H4pypa-peg coordination pocket the protonation of H9L^5+, H7L^3+, and H6L^2+ cannot be characterized using a glass electrode. The H6L^2+ species likely represents a protonated carboxylate group, while H5L^+ and H4L may describe the pyridinecarboxylate nitrogens. The equilibrium involving H3L^− likely describes the dissociation of the protonated pyridine nitrogen, while the two most basic species in this ligand (HL^3− and H2L^2−) are likely the bridging amines in the H4pypa-peg backbone. Equation (3) describes the protonation sequence for H4pypa-peg.3 H10-aL^+6-a⇆H9-aL^+5-a+H^+Ka=H^+·H9-aL^+5-a/H10-aL^+6-aa=1…9

[3] = Stability constants reported in literature; format: binding; conditions: across the lanthanide series
[4] = I = 0.16 M NaCl, uncertainties 1σ; cited from earlier work
[5] = cited from earlier work
[6] = cited from earlier work; remark: listed apart in the source
[7] = in-batch spectrophotometric competition at 25 °C, not evaluated at constant I = 0.16 M NaCl
[8] = potentiometric titrations, I = 0.16 M NaCl, uncertainties 1σ

In the case of O=C(O)CN(CCN(CC(=O)O)CC(=O)O)CC(=O)O [H4edta, ethylenediamine-N,N,N′,N′-tetraacetic acid], the “logβ101 (ML), Nd” value [1] is reported as 14.66(1), the pKa ([2]; I = 2.0 M (Na+/H+)ClO4 (Table 2), read-out: pKa H2L2-) is reported as 6.23 and the pKa ([2]; I = 2.0 M (Na+/H+)ClO4 (Table 2), read-out: pKa H3L-) is reported as 2.48. For the same compound, the pKa ([2]; I = 2.0 M (Na+/H+)ClO4 (Table 2), read-out: pKa H4L(aq)) was 2.08, the pKa ([2]; I = 2.0 M (Na+/H+)ClO4 (Table 2), read-out: pKa HL3-) was 8.71 and the pKa ([2]; I = 2.0 M (Na+/H+)ClO4 at 20.0 °C, read-out: pKa H2L species) was 6.45. It also gave a pKa ([2]; I = 2.0 M (Na+/H+)ClO4 at 20.0 °C, read-out: pKa H3L species) of 2.49, a pKa ([2]; I = 2.0 M (Na+/H+)ClO4 at 20.0 °C, read-out: pKa H4L species) of 2.02 and a pKa ([2]; I = 2.0 M (Na+/H+)ClO4 at 20.0 °C, read-out: pKa HL species) of 8.81.
In the case of O=C(O)CN(Cc1cccc(CN(CC(=O)O)Cc2cccc(C(=O)O)n2)n1)Cc1cccc(C(=O)O)n1 [H4pypa], the “cross-lanthanide stability increase for ML- complexes” value [3] is given as 1000 fold, the “pKa H2L2-” value [4] is given as 6.78 (1) and the “pKa H3L-” value [4] is given as 3.69 (1). For the same compound, the “pKa H4L(aq)” value [4] was 3.02 (1), the “pKa H5L+” value [4] was 2.23 (2) and the “pKa H6L2+” value [4] was 2.06 (6). For the same compound, the “pKa H7L3+” value [4] was 1.70 (2), the “pKa HL3-” value [4] was 7.78 (1) and the “logK111, La” value [5, 7] was 3.24 (5)*. The “logβ101 (ML), La” value [5, 8] was 19.54 (2), the “logK111, Lu” value [6, 7] was 3.60 (6)* and the “logβ101 (ML), Lu” value [6, 8] was 22.20 (2).
